The record followed here is patent US10858352B2, “Pharmaceutical compounds” (Heptares Therapeutics Limited, priority 2018, dated 2020).

For experiment [1], the target named is T1, human muscarinic M1 receptor (Homo sapiens, UniProt P11229).
T1 sequence (P11229 1-460): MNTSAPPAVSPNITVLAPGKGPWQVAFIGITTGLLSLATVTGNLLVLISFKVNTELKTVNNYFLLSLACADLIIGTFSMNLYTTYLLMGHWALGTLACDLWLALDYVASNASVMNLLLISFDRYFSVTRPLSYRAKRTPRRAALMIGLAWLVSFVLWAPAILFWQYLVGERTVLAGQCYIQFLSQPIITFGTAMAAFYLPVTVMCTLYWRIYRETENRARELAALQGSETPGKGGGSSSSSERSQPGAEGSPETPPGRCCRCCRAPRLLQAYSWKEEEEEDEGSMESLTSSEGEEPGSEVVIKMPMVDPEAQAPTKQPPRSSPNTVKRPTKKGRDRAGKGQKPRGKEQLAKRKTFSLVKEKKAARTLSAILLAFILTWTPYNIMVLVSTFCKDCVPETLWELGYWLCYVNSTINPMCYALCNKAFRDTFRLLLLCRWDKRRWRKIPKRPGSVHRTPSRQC
Nature of the experiment: Alphascreen Surefire phospho-ERK1/2 functional assay, M1. It is filed as cell-based. The settings on record: for EC50 / pEC50 M1: agonist 5 min, 37° C.; for Emax: CHO, read-out: % Emax cf. ACh (M1), CHO cells stably expressing human M1; for Emax / % Emax cf. ACh (M1): Emax relative to ACh. The protocol: (§1) ERK1/2 phosphorylation is a downstream consequence of both Gq/11 and Gi/o protein coupled receptor activation, making it highly suitable for the assessment of M1, M3 (Gq/11 coupled) and M2, M4 receptors (Gi/o coupled), rather than using different assay formats for different receptor subtypes. CHO cells stably expressing the human muscarinic M1, M2, M3 or M4 receptor were plated (25K/well) onto 96-well tissue culture plates in MEM-alpha+10% dialysed FBS. Once adhered, cells were serum-starved overnight. Agonist stimulation was performed by the addition of 5 μL agonist to the cells for 5 min (37° C.). Media was removed and 50 μL of lysis buffer added. After 15 min, a 4 μL sample was transferred to 384-well plate and 7 μL of detection mixture added. […]
On the technique in general: In Alpha technology, singlet oxygen from a donor bead excites a nearby acceptor bead.

Experiment [2] addresses T2, human muscarinic M4 receptor (Homo sapiens, UniProt P08173).
T2 construct: expressed in transfected cells
T2 sequence (P08173 1-479): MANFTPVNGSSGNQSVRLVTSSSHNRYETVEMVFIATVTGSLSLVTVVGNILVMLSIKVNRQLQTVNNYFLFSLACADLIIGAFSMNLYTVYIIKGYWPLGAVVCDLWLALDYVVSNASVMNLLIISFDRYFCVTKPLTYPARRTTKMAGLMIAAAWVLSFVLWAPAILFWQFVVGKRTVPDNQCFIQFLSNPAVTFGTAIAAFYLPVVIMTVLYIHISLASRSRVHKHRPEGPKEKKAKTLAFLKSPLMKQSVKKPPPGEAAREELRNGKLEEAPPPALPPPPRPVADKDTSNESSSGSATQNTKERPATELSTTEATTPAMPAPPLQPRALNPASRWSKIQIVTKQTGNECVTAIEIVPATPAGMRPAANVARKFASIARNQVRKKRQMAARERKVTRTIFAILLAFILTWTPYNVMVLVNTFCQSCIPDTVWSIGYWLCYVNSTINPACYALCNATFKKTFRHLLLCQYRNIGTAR
Description: Alphascreen Surefire phospho-ERK1/2 functional assay, M4. The class given is cell-based. The settings on record: for EC50: read-out: pEC50 M4 (converted); for Emax: CHO, read-out: % Emax cf. ACh (M4), CHO cells stably expressing human M4; for Emax / % Emax cf. ACh (M4): Emax relative to ACh. The protocol:
as §1

[3] abbreviates: CHO cells stably expressing human M1, read-out: pEC50 M1 (converted).
[4] abbreviates: CHO cells stably expressing human M4, agonist 5 min, 37° C.
[5] abbreviates: CHO cells stably expressing human M1.
Where [6] appears, read: pEC50 M1, CHO cells stably expressing human M1.
Setting [7] is: CHO cells stably expressing human M4.

Like-named read-outs stand apart in the source and are kept apart here.

Regarding `Cc1noc(N2CCCC(N3CCC4(CC3)CNC(=O)O4)CC2)n1` (racemic) [10-3 Racemic mixture], the EC50 was 372 nM in experiment [1] (setting [3]) and over 20000 nM in experiment [2] (setting [4]). In addition, the Emax (usually the size of the effect at its maximum, as opposed to the concentration needed) in experiment [1] is 97%; in experiment [2], 10%.
On the same counts, the results for `CCN(C(C)=O)C1CCN(C2CCCN(c3nc(C)no3)CC2)CC1` (racemic) [10-11 Racemic mixture] are 3980 nM, 219 nM, 56% and 101%.
On the same counts, the results for `CCOC(=O)[C@H]1[C@@H]2CN(C3CC4(CCN(c5nc(C)no5)C4)C3)C[C@@H]21` (single isomer, unassigned) [2-3 Isomer 2] are over 20000 nM, 513 nM, 9% and 32%.
The matching figures for `Cc1noc(N2CC3(CCC(N4CCC(n5cccn5)CC4)C3)C2)n1` (single isomer, unassigned) [3-1 Isomer 2]: 8320 nM, 1230 nM, 58% and 68%.
As to `Cc1noc(N2CC3CC(C2)C3N2CCC(n3cccn3)CC2)n1` (single isomer, unassigned) [5-1 Isomer 1], the EC50 was over 20000 nM in experiment [1] (setting [3]) and 1260 nM in experiment [2] (setting [4]). The maximal response (Emax) in experiment [1] worked out at 9%; in experiment [2] it was 55%.
Take `Cc1noc(N2C3CCC2CC(N2CCC4(CC2)CNC(=O)C4)C3)n1` (single isomer, unassigned) [6-2 Isomer 1]: the “% Emax cf. ACh (M1)” value in experiment [1] (setting [5]) was “(34) %”. Further, the EC50 is 158 nM in experiment [1] (setting [6]) and over 20000 nM in experiment [2] (setting [4]). In addition, the “% Emax cf. ACh (M4)” value in experiment [2] (setting [7]) is listed as “(9) %”.
Regarding `Cc1noc(N2C3CCC2CC(N2CCC4(CC2)CNC(=O)C4)C3)n1` (single isomer, unassigned) [6-2 Isomer 2], the “% Emax cf. ACh (M1)” value in experiment [1] (setting [5]) is “(81) %”. Besides, the values for the EC50 in experiment [1] (setting [6]) and in experiment [2] (setting [4]) were 63.1 nM and 170 nM, respectively. Further, the “% Emax cf. ACh (M4)” value in experiment [2] (setting [7]) was “(39) %”.
`Cc1noc(N2C3CCC2CC(N2CCC4(CC2)CNC(=O)O4)C3)n1` (single isomer, unassigned) [6-4 Isomer 1]: in experiment [1] (setting [5]), the “% Emax cf. ACh (M1)” value is given as “(49) %”. Further, the EC50 in experiment [1] (setting [3]) is 240 nM; in experiment [2] (setting [4]), over 20000 nM. In addition, the “% Emax cf. ACh (M4)” value in experiment [2] (setting [7]) is recorded as “(15) %”.
As to `Cc1noc(N2C3CCCC2CC(N2CCC(n4cccn4)CC2)C3)n1` (single isomer, unassigned) [8-1 Isomer 2], the EC50 in experiment [1] (setting [3]) was over 20000 nM; in experiment [2] (setting [4]), 1260 nM. The Emax came to 24% in experiment [1] and 38% in experiment [2].
On the same counts, the results for `Cc1noc(N2C3CCCC2CC(N2CCC4(CC2)CNC(=O)C4)C3)n1` (single isomer, unassigned) [8-2 Isomer 1] are 214 nM, over 20000 nM, 30% and 9%.
The matching figures for `Cc1noc(N2C3CCCC2CC(N2CCC(C(=O)NC4(C)CCC4)CC2)C3)n1` (single isomer, unassigned) [8-4 Isomer 1]: 575 nM, 646 nM, 98% and 76%.
The matching figures for `Cc1noc(N2CCCC(N3CCC(n4cccn4)CC3)CC2)n1` (single isomer, unassigned) [10-1 Isomer 1]: 1350 nM, 129 nM, 32% and 73%.
Consider `Cc1noc(N2CCCC(N3CCC(n4cccn4)CC3)CC2)n1` (single isomer, unassigned) [10-1 Isomer 2], for which the “% Emax cf. ACh (M1)” value in experiment [1] (setting [5]) was “(43) %”. In addition, the EC50 in experiment [1] (setting [3]) is 6610 nM; in experiment [2] (setting [4]) it was 525 nM. Also, the “% Emax cf. ACh (M4)” value in experiment [2] (setting [7]) is recorded as “(72) %”.
As to `Cc1noc(N2CCCC(N3CCC4(CC3)CNC(=O)C4)CC2)n1` (single isomer, unassigned) [10-2 Isomer 2], in experiment [1] (setting [5]), the “% Emax cf. ACh (M1)” value is reported as “(53) %”. In experiment [1] (setting [3]), the EC50 is 490 nM. Moreover, the “% Emax cf. ACh (M4)” value in experiment [2] (setting [7]) is on record as “(15) %”. In addition, the “pEC50 M4” value in experiment [2] (setting [4]) is given as under 4.70.
For `CCC1NC(=O)OC12CCN(C1CCCN(c3nc(C)no3)CC1)CC2` (single isomer, unassigned) [10-4 Isomer 1], the “% Emax cf. ACh (M1)” value in experiment [1] (setting [5]) is reported as “(123) %”. Besides, the EC50 in experiment [1] (setting [3]) is 676 nM; in experiment [2] (setting [4]) it was 100 nM. In addition, the “% Emax cf. ACh (M4)” value in experiment [2] (setting [7]) is “(85) %”.
On the same counts, the results for `CCC1NC(=O)OC12CCN(C1CCCN(c3nc(C)no3)CC1)CC2` (single isomer, unassigned) [10-4 Isomer 2] are “(58) %”, 55 nM, 23.4 nM and “(64) %”.
On the same counts, the results for `CCC1NC(=O)OC12CCN(C1CCCN(c3nc(C)no3)CC1)CC2` (single isomer, unassigned) [10-4 Isomer 3] are “(81) %”, 9330 nM, 2190 nM and “(71) %”.
On the same counts, the results for `CCC1NC(=O)OC12CCN(C1CCCN(c3nc(C)no3)CC1)CC2` (single isomer, unassigned) [10-4 Isomer 4] are “(18) %”, over 20000 nM, 871 nM and “(36) %”.
With `Cc1noc(N2CCCC(N3CCC4(CC3)OC(=O)NC4(C)C)CC2)n1` (single isomer, unassigned) [10-5 Isomer 1], the EC50 in experiment [1] (setting [3]) was over 20000 nM; in experiment [2] (setting [4]), 219 nM. The results for the maximal response (Emax) in experiment [1] and in experiment [2] were 21% and 33%, respectively.
`Cc1noc(N2CCCC(N3CCC(N4C[C@H](F)C[C@@H]4CO)CC3)CC2)n1` (single isomer, unassigned) [10-7 Isomer 2]: the “% Emax cf. ACh (M1)” value in experiment [1] (setting [5]) is recorded as “(70) %”. Besides, the values for the EC50 in experiment [1] (setting [3]) and in experiment [2] (setting [4]) were 4270 nM and 398 nM, respectively. In addition, the “% Emax cf. ACh (M4)” value in experiment [2] (setting [7]) was “(76) %”.
With `Cc1noc(N2CCCC(N3CCC(N4CC(F)(F)C[C@@H]4CO)CC3)CC2)n1` (single isomer, unassigned) [10-8 Isomer 1], the EC50 is 676 nM in experiment [1] (setting [3]) and 93.3 nM in experiment [2] (setting [4]). The Emax in experiment [1] was determined as 37%; in experiment [2], 91%.
With `Cc1noc(N2CCCC(N3CCC(N4CC(F)(F)C[C@@H]4CO)CC3)CC2)n1` (single isomer, unassigned) [10-8 Isomer 2], in experiment [1] (setting [5]), the “% Emax cf. ACh (M1)” value is given as “(35) %”. In addition, the EC50 was 1550 nM in experiment [1] (setting [3]) and 295 nM in experiment [2] (setting [4]). The “% Emax cf. ACh (M4)” value in experiment [2] (setting [7]) is listed as “(73) %”.
As for `CC[C@H]1CCC(=O)N1C1CCN(C2CCCN(c3nc(C)no3)CC2)CC1` (single isomer, unassigned) [10-9 Isomer 2], the results for the EC50 in experiment [1] (setting [3]) and in experiment [2] (setting [4]) were 1320 nM and 479 nM, respectively. For the same molecule, the Emax in experiment [1] worked out at 53%; in experiment [2] it was 56%.
On to `Cc1noc(N2CCCC(N3CCC(N4CCCC4c4cnn(C)c4)CC3)CC2)n1` (single isomer, unassigned) [10-10 Isomer 1b], for which the “% Emax cf. ACh (M1)” value in experiment [1] (setting [5]) is “(6) %”. Further, the EC50 is over 20000 nM in experiment [1] (setting [3]) and 513 nM in experiment [2] (setting [4]). Further, the Emax in experiment [2] was determined as 56%.
On to `Cc1noc(N2CCCC(N3CCC(N4CCCC4c4cnn(C)c4)CC3)CC2)n1` (single isomer, unassigned) [10-10 Isomer 2a], for which, in experiment [1] (setting [5]), the “% Emax cf. ACh (M1)” value was “(3) %” and the “pEC50 M1” value was under 4.70. Further, the “% Emax cf. ACh (M4)” value in experiment [2] (setting [7]) is “(52) %”. For the same molecule, in experiment [2] (setting [4]), the EC50 is 1450 nM.
The matching figures for `Cc1noc(N2CCCC(N3CCC(N4CCCC4c4cnn(C)c4)CC3)CC2)n1` (single isomer, unassigned) [10-10 Isomer 2b]: “(14) %”, under 4.70, “(72) %” and 316 nM.
